Laboratory results taken from US20030055244A1, “Pyridyl-containing spirocyclic compounds as inhibitors of fibrinogen-dependent platelet aggregation” (priority 1999, published 2003).
Where two headings read alike, the source gives them in different places.

How the values were obtained:
GPIIb-IIIa = target: T1, GPIIb-IIIa (Homo sapiens, UniProt P05106+P08514); experiment: ELISA IIb-IIIa assay (fibrinogen binding to immobilized purified GPIIb-IIIa); details: inhibition of fibrinogen binding to purified GPIIb-IIIa
T1 construct: Purified platelet GPIIb-IIIa receptor was prepared as described by Fitzgerald; from tissue; host or cells: platelets
Experimental: No. 1 - The ELISA IIb-IIIa Assay
PIIb-IIIa is coated onto microtiter plates. The coated support is then contacted with fibrinogen and with the test material (e.g., compounds of Formula I) and incubated for a sufficient time to permit maximal binding of fibrinogen to the immobilized GPIIb- Ila. Fibrinogen is typically provided at a concentration of about 5-50 nM and the test material can, if desired, be added at a series of dilution. Typical incubations are 2 to 4 hours at 25° C., the time and temperature being interdependent.
After incubation, the solution containing the fibrinogen and test material is removed and the level of binding of fibrinogen measured by quantitating bound fibrinogen to GPIIb-IIIa. Any suitable means of detection may be used, but it is convenient to employ labeled fibrinogen, for example using biotinylated labels. Such methods are well known in the art.
A. Description of Assays—Plate Assays
After purification, the receptors were stored in 0.1% Triton X-100 at 0.1-1.0 mg/ml.
The receptors were coated to the wells of 96-well flat-bottom ELISA plates (Linbro EIA-Plus microtiter plate, Flow Laboratories) after diluting 1:200 with a solution of 20 mM Tris-HCl, 150 mM NaCl, 1 mM CaCl2, pH 7.4, to reduce the Triton X-100 concentration to below its critical micellar concentration and adding an aliquot of 100 ul to each well. The wells were all allowed to incubate overnight at 4° C., and then aspirated to dryness. Additional sites were blocked by the addition of bovine serum albumin (BSA) at 35 mg/ml in the above buffer for two hours at 30° C. to prevent nonspecific binding. The wells were then washed once with binding buffer ([…] Tris-HCl, 100 mM NaCl 2 mM CaCl2, 1 mg/ml BSA).
The corresponding ligands (fibrinogen, von Willebrand Factor, or vitronectin) were conjugated to biotin using commercially available reagents and standard protocols. The labeled ligands were added to the receptor-coated wells at final concentration of 10 nM (100 ul/well) and incubated for 3 hours at 25° C. in the presence or absence of the test samples. After incubation, the wells are aspirated to dryness and bound ligand is quantitated.
Decreased color development is observed in wells incubated with test samples which inhibit binding of ligand to receptor.

[1] = tested on: human platelet-rich plasma; experiment: Platelet aggregation assay (Aggregation-Human PRP/ADP); type: cell-based
Experimental: Platelet-rich plasma was prepared from healthy human volunteers for use in determining inhibition of platelet aggregation by the compounds.
Platelet-rich plasma was prepared at room temperature by centrifugation of the citrated whole blood at 100 × g for twelve minutes. The platelet rich plasma contained approximately 200-400,000 platelets/μl.
Platelet aggregation was assayed in a 4-channel platelet aggregation profiler (PAP-4, Biodata, Hatboro, Pa.) according to the manufacturers directions. Inhibition of platelet aggregation was studied by adding varying amounts of adenosine diphosphate (ADP) to stirred human platelet-rich plasma. Specifically, the human platelet-rich plasma was incubated with the compound being tested for 1 minute at 37° C. prior to the addition of a variety of aggregating agents most often ADP 5 μM to 20 μM, but also 1 μg/ml collagen, 1 μM U46619 and 0.3 μM platelet activating factor.

[2] = read-out: PRP (ADP-Citrate) IC50

T1 sequence (P08514 32-887 limits assumed): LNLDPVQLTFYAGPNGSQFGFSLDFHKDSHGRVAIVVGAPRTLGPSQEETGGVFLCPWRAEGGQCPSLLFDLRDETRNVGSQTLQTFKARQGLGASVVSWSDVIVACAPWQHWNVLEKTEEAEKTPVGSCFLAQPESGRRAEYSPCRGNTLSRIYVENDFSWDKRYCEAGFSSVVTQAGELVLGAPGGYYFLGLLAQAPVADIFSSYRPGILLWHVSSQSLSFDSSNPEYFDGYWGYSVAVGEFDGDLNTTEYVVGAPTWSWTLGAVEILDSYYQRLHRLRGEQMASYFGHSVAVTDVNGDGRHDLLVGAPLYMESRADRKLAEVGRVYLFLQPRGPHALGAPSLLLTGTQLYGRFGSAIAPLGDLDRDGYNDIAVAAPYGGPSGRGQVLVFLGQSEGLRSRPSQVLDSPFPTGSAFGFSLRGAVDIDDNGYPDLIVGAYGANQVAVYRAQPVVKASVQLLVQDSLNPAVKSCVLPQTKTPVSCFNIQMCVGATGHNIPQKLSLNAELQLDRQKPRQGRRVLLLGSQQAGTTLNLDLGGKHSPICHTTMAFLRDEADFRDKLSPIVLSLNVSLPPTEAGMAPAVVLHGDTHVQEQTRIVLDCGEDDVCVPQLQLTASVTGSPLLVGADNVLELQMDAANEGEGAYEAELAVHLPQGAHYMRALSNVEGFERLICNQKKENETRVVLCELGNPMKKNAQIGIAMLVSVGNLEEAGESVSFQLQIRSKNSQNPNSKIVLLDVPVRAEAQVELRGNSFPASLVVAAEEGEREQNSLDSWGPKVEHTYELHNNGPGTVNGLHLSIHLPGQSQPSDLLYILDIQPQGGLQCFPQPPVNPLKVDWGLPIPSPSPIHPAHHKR
T1 sequence (P08514 891-1039 limits assumed): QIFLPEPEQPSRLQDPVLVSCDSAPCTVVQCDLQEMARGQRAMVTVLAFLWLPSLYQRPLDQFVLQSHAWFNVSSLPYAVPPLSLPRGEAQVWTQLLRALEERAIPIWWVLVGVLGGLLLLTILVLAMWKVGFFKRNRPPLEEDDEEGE
T1 sequence (P05106 27-788): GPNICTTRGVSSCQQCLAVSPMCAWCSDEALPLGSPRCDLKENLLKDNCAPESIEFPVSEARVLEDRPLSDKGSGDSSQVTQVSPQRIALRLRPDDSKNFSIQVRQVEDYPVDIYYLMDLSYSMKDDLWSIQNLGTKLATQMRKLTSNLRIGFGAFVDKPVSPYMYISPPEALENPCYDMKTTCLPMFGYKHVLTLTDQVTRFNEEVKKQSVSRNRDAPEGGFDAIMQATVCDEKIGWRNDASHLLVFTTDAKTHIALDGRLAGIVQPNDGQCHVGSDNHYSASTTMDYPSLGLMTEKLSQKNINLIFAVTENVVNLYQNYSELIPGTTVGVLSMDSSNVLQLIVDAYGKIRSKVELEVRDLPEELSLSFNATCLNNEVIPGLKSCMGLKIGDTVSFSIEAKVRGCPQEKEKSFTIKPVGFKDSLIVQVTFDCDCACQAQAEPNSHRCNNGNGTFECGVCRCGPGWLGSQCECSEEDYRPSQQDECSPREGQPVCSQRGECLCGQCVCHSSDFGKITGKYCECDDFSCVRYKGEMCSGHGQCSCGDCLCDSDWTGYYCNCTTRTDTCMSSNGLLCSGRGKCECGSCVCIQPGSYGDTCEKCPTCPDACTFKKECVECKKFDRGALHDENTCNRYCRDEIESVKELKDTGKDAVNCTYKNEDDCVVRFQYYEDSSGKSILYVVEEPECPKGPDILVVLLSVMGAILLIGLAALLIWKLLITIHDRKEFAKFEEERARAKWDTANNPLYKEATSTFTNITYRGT

Row | SMILES | IC50 (GPIIb-IIIa) | IC50 ([1]; read-out: PRP IC50) | IC50 ([1]; read-out: PRP (ADP) IC50) | IC50 [1, 2]
1 | O=C(O)CCCC(=O)N1CCC2(CC1)CCN(c1ccncc1)CC2 [Example 1, 5-oxo-5-(9-(4-pyridyl)-3,9-diazaspiro[5.5]undec-3-yl)pentanoic acid] | 0.238 µM | 5.1 µM |  | 
2 | O=C(O)CCCCC(=O)N1CCC2(CC1)CCN(c1ccncc1)CC2 [Example 2, 6-oxo-6-(9-(4-pyridyl)-3,9-diazaspiro[5.5]undec-3-yl)hexanoic acid] | 0.258 µM | 4.5 µM |  | 
3 | O=C(O)CCCCCC(=O)N1CCC2(CC1)CCN(c1ccncc1)CC2 [Example 3, 7-oxo-7-(9-(4-pyridyl)-3,9-diazaspiro[5.5]undec-3-yl)heptanoic acid] | 0.265 µM | 4.5 µM |  | 
4 | O=C(O)CCCCCCC(=O)N1CCC2(CC1)CCN(c1ccncc1)CC2 [Example 4, 8-oxo-8-(9-(4-pyridyl)-3,9-diazaspiro[5.5]undec-3-yl)octanoic acid] | 1.16 µM | 18 µM |  | 
5 | O=C(N[C@@H](CCC(=O)N1CCC2(CC1)CCN(c1ccncc1)CC2)C(=O)O)OCc1ccccc1 [Example 5, 2(S)-2-{[(benzyloxy)carbonyl]amino}-5-oxo-5-[9-(4-pyridyl)-3,9-diazaspiro [5.5]undec-3-yl]pentanoic acid] | 0.007 µM | 4.6 µM |  | 
6 | CCCCS(=O)(=O)N[C@@H](CCC(=O)N1CCC2(CC1)CCN(c1ccncc1)CC2)C(=O)O [Example 6, 2(S)-2-[(butylsulfonyl)amino]-5-oxo-5-[9-(4-pyridyl)-3,9-diazaspiro [5.5]undec-3-yl]pentanoic acid] |  | 0.79 µM |  | 
7 | Cc1ccc(S(=O)(=O)N[C@@H](CCC(=O)N2CCC3(CC2)CCN(c2ccncc2)CC3)C(=O)O)cc1 [Example 7, 2(S)-2-{[(4-methylphenyl)sulfonyl]amino}-5-oxo-5-[9-(4-pyridyl)-3,9-diazaspiro [5.5]undec-3-yl]pentanoic acid] |  | 0.077 µM |  | 
8 | Cc1noc(C)c1S(=O)(=O)N[C@@H](CCC(=O)N1CCC2(CC1)CCN(c1ccncc1)CC2)C(=O)O [Example 8, 2(S)-2-{[(3,5-dimethyl-4-isoxazolyl)sulfonyl]amino}-5-oxo-5-[9-(4-pyridyl)-3,9-diazaspiro [5.5]undec-3-yl]pentanoic acid] | 0.002 µM | 0.021 µM |  | 
9 | CCCCOC(=O)N[C@@H](CCC(=O)N1CCC2(CC1)CCN(c1ccncc1)CC2)C(=O)O [Example 9, 2(S)-2-[(butoxycarbonyl)amino]-5-oxo-5-[9-(4-pyridyl)-3,9-diazaspiro [5.5]undec-3-yl]pentanoic acid] | 0.002 µM | 0.722 µM |  | 
10 | Cc1noc(C)c1S(=O)(=O)N[C@@H](CNC(=O)N1CCC2(CC1)CCN(c1ccncc1)CC2)C(=O)O [Example 10, (2S)-2-{[(3,5-dimethyl-4-isoxazolyl)sulfonyl]amino}-3-( {[9-(4-pyridyl)-3,9-diazaspiro [5.5]undec-3-yl]carbonyl}amino)propanoic acid] | 0.001 µM | 0.031 µM |  | 
11 | O=C(O)COC1CCN(C(=O)N2CCC3(CC2)CCN(c2ccncc2)CC3)CC1 [Example 11, 2-[(1 -{[9-(4-pyridyl)-3,9-diazaspiro[5.5]undec-3-yl]carbonyl}-4-piperidyl)oxy]acetic acid] | 0.129 µM | 2.65 µM |  | 
12 | O=C(O)CC(=O)N1CCC(C(=O)N2CCC3(CC2)CCN(c2ccncc2)CC3)CC1 [Example 12, 3-oxo-3-(4-{[9-(4-pyridyl)-3,9-diazaspiro[5.5]undec-3-yl]carbonyl}piperidino)propanoic acid] | 0.039 µM | 1.77 µM |  | 
13 | CCCCOC(=O)N[C@@H](CNC(=O)C1CCC2(CC1)CCN(c1ccncc1)CC2)C(=O)O [Example 16, (2S)-2-{[(butyloxyl)carbonyl]amino}-3-({[3-(4-pyridyl)-3-azaspiro[5.5]undec-9-yl]carbonyl}amino)propanoic acid] |  |  | 1.88 µM | 
14 | CC(CC(=O)O)NC(=O)C1CCC2(CC1)CCN(c1ccncc1)CC2 (centres unmarked) [Example 17, 3-({[3-(4-pyridyl)-3-azaspiro[5.5]undec-9-yl]carbonyl}amino)butanoic acid] |  |  | 14.8 µM | 
15 | CC(CNC(=O)C1CCC2(CC1)CCN(c1ccncc1)CC2)CC(=O)O (centres unmarked) [Example 18, 3-methyl-4-({[3-(4-pyridyl)-3-azaspiro[5.5]undec-9-yl]carbonyl}amino) butanoic acid] |  |  | 3 µM | 
16 | O=C(O)CC(=O)N1CCC(C(=O)N2CCC3(CCN(c4ccncc4)CC3)C2)CC1 [Example 19, 3-oxo-3-(4-{[8-(4-pyridyl)-2,8-diazaspiro[4.5]dec-2-yl]carbonyl}piperidino)propanoic acid] | 0.028 µM |  |  | 1.6 µM
17 | O=C(N[C@@H](CCC(=O)N1CCC2(CCN(c3ccncc3)CC2)C1)C(=O)O)OCc1ccccc1 [Example 20, (2S)-2-{[(benzyloxy)carbonyl]amino}-5-oxo-5-[8-(4-pyridyl)-2,8-diazaspiro [4.5]dec-2-yl]pentanoic acid] | 0.012 µM |  |  | 9.1 µM
18 | CCCCOC(=O)N[C@@H](CCC(=O)N1CCC2(CCN(c3ccncc3)CC2)C1)C(=O)O [Example 21, (2S)-2-[(butoxycarbonyl)amino]-5-oxo-5-[8-(4-pyridyl)-2,8-diazaspiro [4.5]dec-2-yl]pentanoic acid] | 0.162 µM |  |  | 5.7 µM
19 | O=C(O)CCCCC(=O)N1CCC2(CCN(c3ccncc3)CC2)C1 [Example 22, 6-oxo-6-(8-(4-pyridyl)-2,8-diazaspiro[4.5]dec-2-yl)hexanoic acid] |  |  |  | > 80 µM
20 | O=C(O)CCCCCCC(=O)N1CCC2(CCN(c3ccncc3)CC2)C1 [Example 23, 8-oxo-8-(8-(4-pyridyl)-2,8-diazaspiro[4.5]dec-2-yl)octanoic acid] | 0.196 µM |  |  | 18.7 µM
21 | O=C(O)CCCCCC(=O)N1CCC2(CCN(c3ccncc3)CC2)C1 [Example 24, 7-oxo-7-(8-(4-pyridyl)-2,8-diazaspiro[4.5]dec-2-yl)heptanoic acid] | 0.016 µM |  |  | 1.3 µM
22 | O=C(O)CCN1CCN(C(=O)N2CCC3(CCN(c4ccncc4)CC3)C2)CC1=O [Example 25, 3-(2-oxo-4-((8-(4-pyridyl)-2,8-diazaspiro[4.5]dec-2-yl)carbonyl)piperazino)propanoic acid] |  |  |  | 8.3 µM
23 | O=C(O)CCN1CCN(C(=O)N2CCC3(CC2)CCN(c2ccncc2)C3)CC1=O [Example 30, 3-(2-oxo-4-((2-(4-pyridyl)-2,8-diazaspiro[4.5]dec-8-yl)carbonyl)piperazino)propanoic acid] |  |  |  | 1.29 µM
24 | O=C(O)CN1CCC(N2CCC3(CCN(c4ccncc4)C3)CC2)CC1 [Example 32, 2-{4-(2-(4-pyridyl)-2,8-diazaspiro[4.5]dec-8-yl]piperidino}acetic acid] |  |  |  | 9.5 µM
25 | O=C(O)CN1CCC(CC(=O)N2CCC3(CC2)CCN(c2ccncc2)C3)CC1 [Example 33, 2-(4-{2-oxo-2-[2-(4-pyridyl)-2,8-diazaspiro[4.5]dec-8-yl]ethyl}piperidino)acetic acid] |  |  |  | 80 µM
26 | CCCCOC(=O)N[C@@H](CCC(=O)N1CCC2(CC1)CCN(c1ccncc1)C2)C(=O)O [Example 35, (2S)-2-[(butoxycarbonyl)amino]-5-oxo-5-[2-(4-pyridyl)-2,8-diazaspiro [4.5]dec-8-yl]pentanoic acid] |  |  |  | 4 µM
27 | CN(CC(=O)O)C1CCN(C(=O)N2CCC3(CC2)CCN(c2ccncc2)C3)CC1 [Example 46, 2-[methyl(1-{[2-(4-pyridyl)-2,8-diazaspiro[4.5]dec-8-yl]carbonyl}-4-piperidyl)amino]acetic acid] |  | 10 µM |  | 
28 | O=C(O)COC1CCN(CC(=O)N2CCC3(CC2)CCN(c2ccncc2)C3)CC1 [Example 50, 2-[(1-{2-oxo-2-[2-(4-pyridyl)-2,8-diazaspiro[4.5]dec-8-yl]ethyl}-4-piperidyl)oxyl]acetic acid] |  | 80 µM |  | 
29 | O=C(O)COc1ccc(C(=O)N2CCC3(CC2)CCN(c2ccncc2)C3)cc1 [Example 52, 2-(4-{[2-(4-pyridyl)-2,8-diazaspiro[4.5]dec-8-yl]carbonyl}phenoxy) acetic acid] |  |  |  | 11.3 µM
